{"source": "ChEMBL document CHEMBL4257534", "about": "“Curcumin-based pyrazoline analogues as selective inhibitors of human monoamine oxidase A” (Medchemcomm, 2018)", "key": {"in vitro": {"assay": "in vitro", "settings": "PAMPA; call rule not given here"}, "[1]": {"molecular_target": "T1, Amine oxidase [flavin-containing] A (Homo sapiens, UniProt P21397)", "T1 sequence (P21397 whole entry)": "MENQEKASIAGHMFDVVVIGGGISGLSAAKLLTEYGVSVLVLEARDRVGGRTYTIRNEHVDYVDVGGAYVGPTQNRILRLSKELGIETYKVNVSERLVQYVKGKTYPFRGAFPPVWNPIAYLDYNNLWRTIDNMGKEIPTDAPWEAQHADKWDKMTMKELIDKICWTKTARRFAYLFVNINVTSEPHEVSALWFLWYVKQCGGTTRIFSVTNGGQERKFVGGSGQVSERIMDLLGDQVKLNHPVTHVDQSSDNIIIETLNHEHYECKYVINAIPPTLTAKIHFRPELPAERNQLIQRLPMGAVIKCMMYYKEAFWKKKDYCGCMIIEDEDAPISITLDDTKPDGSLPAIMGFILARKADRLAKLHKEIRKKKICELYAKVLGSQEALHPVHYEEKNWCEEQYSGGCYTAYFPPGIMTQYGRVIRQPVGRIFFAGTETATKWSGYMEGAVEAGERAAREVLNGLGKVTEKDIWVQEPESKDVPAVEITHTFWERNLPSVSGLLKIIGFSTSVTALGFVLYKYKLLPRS", "assay": "Inhibition of recombinant human MAO-A assessed as reduction in H2O2 production preincubated for 30 mins followed by p-tyramine substrate addition measured after 30 mins by amplex red reagent based fluorescence assay"}, "[2]": {"molecular_target": "T2, Amine oxidase [flavin-containing] B (Homo sapiens, UniProt P27338)", "T2 sequence (P27338 whole entry)": "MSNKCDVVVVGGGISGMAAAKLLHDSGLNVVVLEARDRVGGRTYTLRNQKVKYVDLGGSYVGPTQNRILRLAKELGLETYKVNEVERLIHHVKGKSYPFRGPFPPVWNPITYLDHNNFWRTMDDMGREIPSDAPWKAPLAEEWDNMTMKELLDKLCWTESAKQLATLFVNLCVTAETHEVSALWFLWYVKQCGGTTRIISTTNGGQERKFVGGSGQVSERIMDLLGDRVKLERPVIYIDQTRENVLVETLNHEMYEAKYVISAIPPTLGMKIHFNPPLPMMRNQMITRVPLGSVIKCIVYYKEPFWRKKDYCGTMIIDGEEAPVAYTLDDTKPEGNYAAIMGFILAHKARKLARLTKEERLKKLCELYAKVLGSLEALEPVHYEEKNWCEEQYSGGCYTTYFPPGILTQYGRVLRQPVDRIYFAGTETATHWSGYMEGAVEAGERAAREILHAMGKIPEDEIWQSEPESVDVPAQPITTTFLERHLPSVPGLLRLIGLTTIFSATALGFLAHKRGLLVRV", "description": "Inhibition of recombinant human MAO-B assessed as reduction in H2O2 production preincubated for 30 mins followed by p-tyramine substrate addition measured after 30 mins by amplex red reagent based fluorescence assay"}, "Homo sapiens": {"organism": "Homo sapiens", "assay": "Selectivity index, ratio of Ki for recombinant human MAO-B to Ki for recombinant human MAO-A"}, "[3]": {"molecular_target": "T1, Amine oxidase [flavin-containing] A", "assay": "Competitive inhibition of recombinant human MAO-A assessed as reduction in H2O2 production preincubated for 30 mins followed by p-tyramine substrate addition measured after 30 mins by Lineweaver-Burk plot analysis", "settings": "0.5 h"}, "[4]": {"molecular_target": "T1, Amine oxidase [flavin-containing] A", "assay": "Reversible inhibition of recombinant human MAO-A assessed as enzyme activity recovery at 5 time Ki value preincubated for 15 mins followed by dilution of enzyme-inhibitor mixture for 24 hrs and subsequent p-tyramine substrate addition by dialysis method"}, "[5]": {"assay": "Cytotoxicity against human HepG2 cells assessed as cell viability at 1 uM after 24 hrs by MTT assay relative to control", "format": "cell-based", "settings": "read-out: Activity"}, "[6]": {"assay": "Cytotoxicity against human HepG2 cells assessed as cell viability at 5 uM after 24 hrs by MTT assay relative to control", "format": "cell-based", "settings": "read-out: Activity"}, "[7]": {"assay": "Cytotoxicity against human HepG2 cells assessed as cell viability at 25 uM after 24 hrs by MTT assay relative to control", "format": "cell-based", "settings": "read-out: Activity"}, "[8]": {"molecular_target": "T1, Amine oxidase [flavin-containing] A", "assay": "Suicide inhibition of recombinant human MAO-A assessed as reduction in H2O2 production preincubated for 30 mins followed by p-tyramine substrate addition measured after 30 mins by Lineweaver-Burk plot analysis", "settings": "0.5 h"}, "[9]": {"molecular_target": "T1, Amine oxidase [flavin-containing] A", "assay": "Irreversible inhibition of recombinant human MAO-A at 5 time Ki value preincubated for 15 mins followed by dilution of enzyme-inhibitor mixture for 24 hrs and subsequent p-tyramine substrate addition by dialysis method"}}}
{"molecule": "C[C@]12CC[C@@H]3c4ccc(O)cc4CC[C@H]3[C@@H]1CC[C@@H]2O", "note": "[ESTRADIOL]", "values": [{"measurement": "Papp at 16 h, 50 ug/ml", "setting": "in vitro", "result": 11.8, "unit": "×10⁻⁶ cm/s"}]}
{"molecule": "CCn1cc(C(=O)O)c(=O)c2cc(F)c(N3CCNC(C)C3)c(F)c21", "note": "(configuration not stated) [LOMEFLOXACIN]", "values": [{"measurement": "Papp at 16 h, 50 ug/ml", "setting": "in vitro", "result": 1.24, "unit": "×10⁻⁶ cm/s"}]}
{"molecule": "COc1cc(C2=NN(C(=S)Nc3ccccc3)C(c3ccc(Cl)cc3)C2)ccc1O", "note": "(configuration not stated)", "values": [{"measurement": "Ki", "setting": "[1]", "result": 19.6, "unit": "µM"}, {"measurement": "Ki", "setting": "[2]", "result": 4770, "unit": "µM"}, {"measurement": "Ratio Ki", "setting": "Homo sapiens", "result": 244}, {"measurement": "inhibition (INH)", "setting": "[3]", "result": "Active"}, {"measurement": "inhibition (INH)", "setting": "[4]", "result": "Active"}, {"measurement": "viability at 24 h, 1 µM", "setting": "[5]", "result": 95, "unit": "%"}, {"measurement": "viability at 24 h, 5 µM", "setting": "[6]", "result": 88.2, "unit": "%"}, {"measurement": "viability at 24 h, 25 µM", "setting": "[7]", "result": 80.3, "unit": "%"}, {"measurement": "Papp at 16 h, 50 ug/ml", "setting": "in vitro", "result": 9.55, "unit": "×10⁻⁶ cm/s"}]}
{"molecule": "COc1cc(C2=NN(S(=O)(=O)c3ccc(C)cc3)C(c3ccc(Cl)cc3)C2)ccc1O", "note": "(configuration not stated)", "values": [{"measurement": "Ki", "setting": "[1]", "result": 40, "unit": "µM"}, {"measurement": "Ki", "setting": "[2]", "result": 6000, "unit": "µM"}, {"measurement": "Ratio Ki", "setting": "Homo sapiens", "result": 150}, {"measurement": "inhibition (INH)", "setting": "[3]", "result": "Active"}, {"measurement": "inhibition (INH)", "setting": "[4]", "result": "Active"}, {"measurement": "viability at 24 h, 1 µM", "setting": "[5]", "result": 91.2, "unit": "%"}, {"measurement": "viability at 24 h, 5 µM", "setting": "[6]", "result": 79.5, "unit": "%"}, {"measurement": "viability at 24 h, 25 µM", "setting": "[7]", "result": 64.1, "unit": "%"}, {"measurement": "Papp at 16 h, 50 ug/ml", "setting": "in vitro", "result": 12, "unit": "×10⁻⁶ cm/s"}]}
{"molecule": "O=C(NCCN1CCOCC1)c1ccc(Cl)cc1", "note": "[MOCLOBEMIDE]", "values": [{"measurement": "inhibition (INH)", "setting": "[3]", "result": "Active"}, {"measurement": "inhibition (INH)", "setting": "[4]", "result": "Active"}]}
{"molecule": "COc1cc(C2=NN(C(=O)Oc3ccccc3)C(c3ccc(Cl)cc3)C2)ccc1O", "note": "(configuration not stated)", "values": [{"measurement": "Ki", "setting": "[1]", "result": 193, "unit": "µM"}, {"measurement": "Ki", "setting": "[2]", "result": 5770, "unit": "µM"}, {"measurement": "Ratio Ki", "setting": "Homo sapiens", "result": 29.9}, {"measurement": "inhibition (INH)", "setting": "[3]", "result": "Active"}, {"measurement": "inhibition (INH)", "setting": "[4]", "result": "Active"}, {"measurement": "viability at 24 h, 1 µM", "setting": "[5]", "result": 93.1, "unit": "%"}, {"measurement": "viability at 24 h, 5 µM", "setting": "[6]", "result": 81.7, "unit": "%"}, {"measurement": "viability at 24 h, 25 µM", "setting": "[7]", "result": 77, "unit": "%"}]}
{"molecule": "COc1cc(C2=NNC(c3ccc(Cl)cc3)C2)ccc1O", "note": "(configuration not stated)", "values": [{"measurement": "Ki", "setting": "[1]", "result": 0.08, "unit": "µM"}, {"measurement": "Ki", "setting": "[2]", "result": 140, "unit": "µM"}, {"measurement": "Ratio Ki", "setting": "Homo sapiens", "result": 1750}, {"measurement": "inhibition (INH)", "setting": "[3]", "result": "Active"}, {"measurement": "inhibition (INH)", "setting": "[4]", "result": "Active"}, {"measurement": "viability at 24 h, 1 µM", "setting": "[5]", "result": 99, "unit": "%"}, {"measurement": "viability at 24 h, 5 µM", "setting": "[6]", "result": 94.5, "unit": "%"}, {"measurement": "viability at 24 h, 25 µM", "setting": "[7]", "result": 90.2, "unit": "%"}, {"measurement": "Papp at 16 h, 50 ug/ml", "setting": "in vitro", "result": 13.9, "unit": "×10⁻⁶ cm/s"}]}
{"molecule": "COc1cc(C2=NN(C(=O)c3ccccc3)C(c3ccc(Cl)cc3)C2)ccc1O", "note": "(configuration not stated)", "values": [{"measurement": "Ki", "setting": "[1]", "result": 26.2, "unit": "µM"}, {"measurement": "Ki", "setting": "[2]", "result": 6000, "unit": "µM"}, {"measurement": "Ratio Ki", "setting": "Homo sapiens", "result": 229}, {"measurement": "inhibition (INH)", "setting": "[3]", "result": "Active"}, {"measurement": "inhibition (INH)", "setting": "[4]", "result": "Active"}, {"measurement": "viability at 24 h, 1 µM", "setting": "[5]", "result": 90, "unit": "%"}, {"measurement": "viability at 24 h, 5 µM", "setting": "[6]", "result": 86.3, "unit": "%"}, {"measurement": "viability at 24 h, 25 µM", "setting": "[7]", "result": 78.2, "unit": "%"}]}
{"molecule": "NCCNC(=O)c1ccc(Cl)cn1", "note": "[LAZABEMIDE]", "values": [{"measurement": "Ki", "setting": "[1]", "result": 7900, "unit": "µM"}, {"measurement": "inhibition (INH)", "setting": "[3]", "result": "Active"}, {"measurement": "inhibition (INH)", "setting": "[4]", "result": "Active"}]}
{"molecule": "C#CCN(C)[C@H](C)Cc1ccccc1", "note": "[SELEGILINE]", "values": [{"measurement": "inhibition (INH)", "setting": "[8]", "result": "Active"}, {"measurement": "inhibition (INH)", "setting": "[9]", "result": "Active"}]}
